Test results reported in patent US20080311103A1, “Anti-Inflammatory Peptides and Methods of Use Thereof” (YEDA RESEARCH AND DEVELOPMENT CO. LTD. at THE WEIZMANN …, priority 2004, published 2008).
Where two headings read alike, the source gives them in different places. Ends that are not written are not given here.

What was measured:
[1] = tested on: mice sensitized with oxazolone; format: in vivo, mouse; details: ear measured 24 hours after oxazolone challenge, BALB/c mice
Experimental: Groups of 5 female inbred BALB/c mice (The Jackson Laboratory, Bar Harbor, Me.) were sensitized on the shaved abdominal skin with 2% oxazolone (100 μl) dissolved in acetone/olive oil [4:1 (vol/vol)] applied topically. Delayed type hypersensitivity (DTH) was elicited 5 days later by challenging the mice with 0.5% oxazolone in acetone/olive oil (10 μl given topically to each side of the ear). A constant area of the ear was measured immediately before and 24 hours after the challenge using a Mitutoyo engineer's micrometer. The percent inhibition of DTH is calculated as follows:
% Inhibition=[1-{(treated−negative control)/(positive control−negative control)}]×100.
The positive control is the DTH reaction to oxazolone elicited in sensitized mice without treatment. The negative control is the background swelling produced by the oxazolone antigen in naïve non-sensitized mice.
Peptides Nos. 1-5 were given to the mice by mini perfusion pumps (alzet osmotic pump model 2001), which contained the indicated peptide (40 μg; 200 μl). The pumps were implanted under the mouse skin one day before oxazolone sensitization and they released the peptide in a rate of 1 μl per hour (0.2 μg/hour) for 7 days.
Peptides Nos. 6-10 were given to the mice by subcutaneously injection (1 μg or 10 μg per mouse), every day, starting at one day before oxazolone sensitization and ending at day 5 post DTH initiation.

[2] = tested on: BALB/C mice; assay: TNBS-induced colitis model of inflammatory bowel disease (IBD); format: in vivo, mouse; details: 200 μg/mouse SC daily; day 7 after TNBS
Experimental: BALB/C mice, which were anesthetized for 5-10 min, received by intrarectal administration, 30 μl of a solution of 2,4,6-trinitrobenzene sulfonic acid (TNBS; 100 mg/kg) dissolved in 0.9% NaCl and mixed with an equal volume of ethanol (50% ethanol). Animals were killed 7 days after TNBS administration.
Wound fluid peptides were administered once daily by subcutaneous (SC) administration starting 1 day before the induction of colitis and every day for the next 7 days as follows:
Treatment with the wound fluid peptides was evaluated at day 7 by determination of macroscopic inflammation scores. The colon of each mouse was examined under a dissecting microscope to evaluate the macroscopic lesions according to the Wallace criteria. The Wallace score lists macroscopic colon lesions on a scale from 0 to 10 based on features reflecting inflammation, such as hyperemia, thickening of the bowel, and extent of ulceration (Wallace, J. L., et al. 1989, Gastroenterology, 96:29).

[3] = tested on: anti-CD3 antibody induced IFNγ secretion from T cells; assay: IFNγ secretion by anti-CD3 activated T cells; format: cell-based, human; design: concentration or dose not given beside the values; details: 24 hours; ELISA; FIG. 7B
Experimental: (§1) Human T cells were purified and maintained in culture (RPMI containing 10% FCS, 1% Pyruvate, 1% glutamine, 1% antibiotics, 7.5% CO2, humidified atmosphere) for 15 hr before they were transferred to RPMI and activated (2 hr, 37° C.) with the indicated concentrations of the peptides. The cells were then plated (1.5×10^6 cells/0.5 ml/well) in 24 wells plates (non-tissue culture grade) precoated with anti-CD3 mAb in order to stimulate the cells to secrete cytokines. After 24 hours, the supernatants were collected and their cytokine content (TNFα and IFNγ) was determined by ELISA using anti-IFNγ and anti TNFα mAb (Pharmingen; San Diego, Calif.) according to the manufacturer's instructions.

[4] = tested on: anti-CD3 antibody induced TNFα secretion from T cells; assay: TNFα secretion by anti-CD3 activated T cells; format: cell-based, human; details: peptide 100 ng/ml; 24 hours; ELISA; FIG. 7A
Experimental: as §1

[5] = tested on: NF-κB; assay: Nuclear translocation of NF-κB in T cells (Western blot); format: cell-based; details: peptide 100 ng/ml for 2 hours, then anti-CD3 mAb 24 hr; human T cells
Text: To address the modulatory role of the wound fluid peptides on the signal transduction cascade leading to regulation of T-cell secretion of TNF-α(and IFN-γ, the nuclear translocation of NF-κB was detected by probing nuclear and cytoplasmic T-cell extracts using mAb specific for the p65 subunit of NF-κB. The nuclear protein Lamin B was used as continuatively expressed control protein for the quantification of protein amounts.
Human T cells. T cells were purified from the peripheral blood of healthy human donors (Blood Bank; Tel-Hashomer, Israel). The whole blood was incubated (20 min, 22° C.) with RosetteSep™ human T-cell enrichment cocktail (StemCell Technologies, Vancouver, BC, Canada). The remaining unsedimented cells were then loaded onto Lymphocyte Separation Medium (ICN Biomedicals; Belgium), isolated by density centrifugation, and washed with PBS. The purified cells (>95% CD3^+ T cells) so obtained were cultured in RPMI containing antibiotics and 10% heat-inactivated FCS. Western blot analysis of T-cell nuclear extracts. Purified T cells (5×10^6) were preincubated with the peptides (100 ng/ml) for 2 hours (37° C. in a 7% CO2, humidified atmosphere). The cells were then replated in 24-well plates pre-coated with anti-CD3 mAb for 24 hr (37° C. in a 7% CO2, humidified atmosphere). T cells were lysed in 10 mM HEPES, 1.5 mM MgCl2, 1 mM dithiothreitol (DTT), 1 mM PMSF, 0.5% Nonidet P-40. The lysates were incubated on ice for 10 min and centrifuged at 2000 rpm for 10 min at 4° C. The supernatants (cytoplasmic extracts) were transferred and the pellet (nuclei) was suspended in buffer containing 30 mM HEPES, 450 mM NaCl, 25% Glycerol, 0.5 mM EDTA, 6 mM DTT, 12 mM MgCl2 1 mM PMSF, 10 μg/ml leupeptin, 10 μg/ml pepstatin, 1% phosphatase inhibitor cocktail, and the suspension was incubated on ice for 30 min. The lysates were cleared by centrifugation (30 min, 14×10^3 rpm, 4° C.), and the resulting supernatants analyzed for protein content. […]

[6] = tested on: T cells; assay: Chemotaxis assay: T cell migration toward SDF-1α; format: cell-based; details: SDF-1α 250 ng/ml, 3 hr
Experimental: The migration of ^51-[Cr]-labeled T cells was examined in […] Transwell chemotaxis apparatus (6.5-mm diameter; Corning, N.Y.), consisting of two compartments separated by polycarbonate filters (5 μm pore size) pretreated (1 hr, 37° C.) with FN (25 μg/ml). ^51-[Cr]-labeled T cells (2×10^5 in 100 μl of RPMI containing 0.1% BSA and antibiotics), which were pre-incubated with the indicated concentrations of peptides (30 min, 37° C.), were added to the upper chambers. The bottom chambers contained 0.6 ml of the same media, with or without human Stromal cell-Derived Factor-1α (SDF-1α; 250 ng/ml). After incubation at 37° C. for 3 hr (7.5% CO2-humidified atmosphere), cells that had transmigrated into the lower wells were collected, centrifuged, and lysed (in 100 μl of distilled water containing 1 M NaOH and 0.1% Triton X-100), and the radioactivity in the resulting supernatants was determined with a γ-counter. The percentage (±SD) of cell migration was calculated as the radioactivity counts in the lysates of the lower chambers (representative of the migrating cells) divided by the total counts (representative of 2×10^5 cells).

[7] = tested on: Jurkat and THP-1 cells; assay: TNFα secretion by PMA/PHA induced Jurkat and THP-1 cells; format: cell-based, human; details: 48 hours, ELISA
Experimental: Jurkat cells human T cell lymphoma line) (2×10^6 cells/ml) cultured in RPMI-1640 supplemented with 10% FCS were activated with PMA (50 ng/ml) and phytohaemagglutinin PHA (4 µg/ml) for 6 hours at 37° C. (7.5% CO2-humidified atmosphere). Thereafter, the cells were washed, plated on 24-well plates (10^6 cells/well in 0.5 ml), and incubated (1 hour at 37° C., 7.5% CO2-humidified atmosphere) with the indicated concentrations of peptides 1-5. Following the incubation, THP-1 cells (human monocytic cell line derived from a patient with acute monocytic leukaemia; 1.25×10^5 cells/0.5 ml/well) were added to the wells. After 48 hours, the supernatants were collected and their TNF[…] content was determined by ELISA using anti TNF[…] mAb (Pharmingen; San Diego, Calif.) according to the manufacturer's instructions.

[8] = Stability to serum proteases (HPLC); format: in vitro ADME, mouse
Experimental: To test the stability of peptide No. 5 to blood proteases, 100 μl of a 1 mg/ml solution of the peptide were incubated at 37° C. with 40 μl of mouse serum. Samples withdrawn after 0, 2, 4 or 24 hours were precipitated with 200 μl of methanol and centrifuged for 1 min at 10,000×g. The crude solution was analyzed by HPLC equipped with a 220 nm detector. The crude solution was diluted in 0.1% trifluoroacetic acid (TFA), applied on a RP-18^e column (Chromolith) (MERCK, Darmstadt, Germany), and the HPLC conditions were as follows: mobile phase A, TFA (0.1%) in water; mobile phase B: TFA (0.1%) in acetonitrile (75%). The flow rate was 3 ml/min and the gradient was 0 to 100% B for the first 10 min, 100% B for additional 5 min, and for the last 5 min the gradient was 100% B to 0.

[9] = FIG. 1, peptides by implanted osmotic pump, 0.2 μg/hour for 7 days
[10] = FIG. 2, peptides subcutaneously 1 μg or 10 μg per mouse every day

Row | Molecule | inhibition of DTH response [1, 9] | inhibition of DTH response [1, 10] | inhibition of anti-CD3 antibody induced IFNγ secretion from T cells [3] [%] | inhibition of anti-CD3 antibody induced TNFα secretion from T cells [4] [%] | other results
1 | C[C@@H]1C[C@H]2[C@@H]3CCC4=CC(=O)C=C[C@]4(C)[C@@]3(F)[C@@H](O)C[C@]2(C)[C@@]1(O)C(=O)CO [Dexamethasone, reference compound] | ~70% | ~70% | – | – | Wallace score (macroscopic inflammation score, scale 0 to 10) [2]: 2.9±1
2 | ALTDMPQM [compound 7, residues 250-257 of Fibrinogen Aα; identified in wound fluids, then synthesized] | – | hardly inhibited | 30 | 30 | –
3 | DHSKNPVGV [compound 8, residues 320-328 of ADAM 8; identified in wound fluids, then synthesized] | – | 60% | 15 | 30 | –
4 | ELERPGGNEI [compound 6, residues 260-269 of Fibrinogen Aα; identified in wound fluids, then synthesized] | – | 50% | 40 | 40 | NF-κB translocation to the nucleus [5]: significant down-regulation
5 | MIESSMN [compound 1, residues 827-833 of LRP5; identified in wound fluids, then synthesized] | hardly inhibited | – | – | – | inhibition of T cell transmigration toward SDF-1α ([6]; concentration range 10-1000 ng/ml): did not show a significant inhibition; inhibition of TNFα secretion by Jurkat and THP-1 cells ([7]; concentration range 1-1000 ng/ml): did not exert a significant inhibition
6 | NDADDST [compound 9, residues 302-308 of Cadherin 4; identified in wound fluids, then synthesized] | – | hardly inhibited | 40 | ~50 | –
7 | NPDESSKPNMI [peptide No. 5, NPDESSKPNMI] | – | – | – | – | % Area (HPLC peak of peptide) ([8]; Test 1, 0 hours incubation with mouse serum): 74.23%; % Area (HPLC peak of peptide) ([8]; Test 1, 2 hours incubation at 37° C. with mouse serum): 75.08%; % Area (HPLC peak of peptide) ([8]; Test 1, 4 hours incubation at 37° C. with mouse serum): 68.94%; % Area (HPLC peak of peptide) ([8]; Test 1, 24 hours incubation at 37° C. with mouse serum): 68.69%; % Area (HPLC peak of peptide) ([8]; Test 2, 0 hours incubation with mouse serum): 90.62%; % Area (HPLC peak of peptide) ([8]; Test 2, 2 hours incubation at 37° C. with mouse serum): 87.32%; resistance to serum proteases ([8]; mouse serum, up to 24 hours): highly resistant; metabolised at 2 h, 0.71 mg/ml ([8]; mouse, mouse serum, after 2 hours (test 2), read-out: peptide degraded in the presence of mouse serum): ~3.5%; metabolised at 4 h, 0.71 mg/ml ([8]; mouse, mouse serum, after 4 hours (test 1), read-out: peptide degraded in the presence of mouse serum): 7.5%; metabolised at 24 h, 0.71 mg/ml ([8]; mouse, mouse serum, after 24 hours (test 1), read-out: peptide degraded in the presence of mouse serum): 7.5%; remaining at 24 h, 0.71 mg/ml ([8]; mouse, mouse serum, after 24 hours of exposure to serum proteases, read-out: peptide still present as an intact peptide): > 90%
8 | NQGEESAEI [compound 10, residues 470-478 of Calcitonin receptor; identified in wound fluids, then synthesized] | – | 30% | 75 | ~70 | –
9 | TDYGKDLMEKV [peptide No. 4, residues 42-52 of Apo A-II; identified in wound fluids, then synthesized] | hardly inhibited | – | ~50 | ~50 | inhibition of T cell migration toward SDF-1α ([6]; peptide 1000 ng/ml): 30%; inhibition of TNFα secretion by Jurkat and THP-1 cells compared to PMA/PHA alone ([7]; peptide 1 μg/ml): 40%
